Source: patent publication US11498896B2 (The Broad Institute, Inc., priority 2014, dated 2022)
Where two headings read alike, the source gives them in different places.

What was measured:
D2 receptor = D2 receptor (Homo sapiens (Human), UniProt P14416); assay: D2 radioligand binding assay
[1] = Pharmacokinetic and brain distribution study in mice; assay type: in vivo; conditions: single intraperitoneal dose 30 mg/kg, male C57BL/6 mice; for half-life / AUC / Cmax: mouse, ip
Experimental: Pharmacokinetic Studies on Mice Brains
Twelve male C57BL/6 mice were weighed and administered intraperitoneally with a dose of test compound (Examples 90, 157, 125) solution formulation. The dosing volume administered for the intraperitoneal route was at 10 mL/kg. Blood samples (approximately […]) were collected from retro-orbital plexus of each mouse under light isoflurane anesthesia at 0.08, 0.5, 1, 2, 4, and 8 hr. Following the collection of blood, plasma was also harvested by centrifugation and stored at −70° C. until analysis. After collection of plasma, the animals were euthanized and brain samples were isolated at 0.08, 0.5, 1, 2, 4, and 8 hr. Tissue samples (brain) were homogenized using ice-cold phosphate buffer saline (pH 7.4) and homogenates were stored below −70° C. until analysis. Total homogenate volume was three times the tissue weight. Concentrations of test compound in mouse plasma and brain samples were determined by LC-MS/MS method.
Identical extraction procedures were used for the plasma/brain homogenate study samples and the spiked plasma calibration standards: A 25 μL sample of either study sample (plasma/brain) or spiked calibration standard was added to individual pre-labeled micro-centrifuge tubes. A volume of 100 μL of IS (antipyrine, 500 ng/mL) prepared in acetonitrile was then added to the micro-centrifuge tubes, except in a sample used as a negative control where only acetonitrile was added and vortexed for 5 minutes. Samples were centrifuged for 20 minutes at the speed of 4000 rpm at 4° C. Following centrifugation, 100 μL of the supernatant was sampled from each centrifuge tube and transferred into insert vials. These vials remained within the auto-sampler for the LC/MS/MS analysis. Standards used for calibration were prepared by spiking 10 μL of the test compound in 190 μL of control (used as a negative control) mouse plasma/brain homogenate.
The plasma and brain concentration-time data of test compounds was provided for data analysis. The plasma and brain concentration-time data was then used for the pharmacokinetic analysis. Non-Compartmental-Analysis module in Phoenix® WinNonlin® (Version 6.3) was used to assess the pharmacokinetic parameters. Peak plasma concentrations (Cmax) and time for the peak plasma concentrations (Tmax) were the observed values. The areas under the concentration time curve (AUClast and AUCinf) were calculated by linear trapezoidal rule. The terminal elimination rate constant, ke was determined by regression analysis of the linear terminal portion of the log plasma concentration-time curve.
Illustrative results are presented in FIG. 2, the pharmacokinetic parameters are as follow: […]

human D2R/β-arrestin [2] = biological target: T1, human D2R/β-arrestin (Homo sapiens (Human), UniProt P14416); assay: Gi/cAMP agonist assay (Lance Ultra cAMP, forskolin); assay type: cell-based; conditions: CHO-K1 cells expressing human D2R/β-arrestin; agonist mode, 2.5 μM forskolin
Experimental: Eu-cAMP tracer solution (10 μl, PerkinElmer, 360 μl of Tracer in 17.64 ml kit buffer) and ULight-anti-cAMP solution (10 μl, 120 μL antibody in 17.88 ml kit buffer) was then added to each well.

human D2R/β-arrestin [3] = biological target: T1, human D2R/β-arrestin; assay: β-arrestin agonist assay (PathHunter); assay type: cell-based; conditions: CHO-K1 cells expressing human D2R/β-arrestin; agonist mode
Experimental: The detection reagent (9.6 μL, Buffer:Emerald II:Galactor-Star in a 19:5:1 ratio, i.e., 14.06 mL:3.7 mL:0.74 mL=18.5 mL) was then added to the agonist plates.

human D2R/β-arrestin [4] = biological target: T1, human D2R/β-arrestin; assay: cell-based; conditions: cAMP Antagonist, CHO-K1 cells expressing human D2R/β-arrestin; antagonist mode, 2.5 μM forskolin and 2.7 nM quinpirole
Experimental: Cells were prepared for assays by growing cultures for up to 2 weeks (from about 6-20 passages). A vial of frozen cells was thawed in a water bath held at 37° C. The cells were then transferred into a 50 ml tube with 10 ml growth media. The vial was rinsed with growth media and the contents transferred to the 50 ml tube. The 50 ml tube was centrifuged at 1200 rpm for 5 minutes at room temperature. […] When the cells reached about 90% confluence (approximately 3 days between passages), the cells were passaged and used for either the agonist or antagonist assays as described below.
The cells were prepared for Gi/cAMP assays as described above. The assays were performed using a PE Lance Ultra cAMP kit (TRF0263). The cells were grown on 225 mm dishes, then washed once with 1×PBS (Cellgro) before digestion with 2.5 ml 1× Detachment reagent (DRX 92-0009) for about 2 minutes. PBS (20 ml) was then added to the plate, and the cells were transferred to a 50 ml centrifuge tube, and centrifuged at room temperature using BD Dynac III, at 1200 rpm for 5 minutes. […] The plates were then incubated at room temperature for about 30 minutes before addition of Eu-cAMP tracer solution (10 μl, PerkinElmer) and then ULight-anti-cAMP solution (10 μl) to each well.

Brain protein binding = assay type: in vitro ADME
human D2R/β-arrestin [5] = biological target: T1, human D2R/β-arrestin; assay: cell-based; conditions: β-arrestin Antagonist, CHO-K1 cells expressing human D2R/β-arrestin; antagonist mode, quinpirole 130 nM
[6] = brain, read-out: Brain T1/2 (converted)
[7] = plasma, read-out: Plasma T1/2 (converted)

T1 sequence (P14416 whole entry): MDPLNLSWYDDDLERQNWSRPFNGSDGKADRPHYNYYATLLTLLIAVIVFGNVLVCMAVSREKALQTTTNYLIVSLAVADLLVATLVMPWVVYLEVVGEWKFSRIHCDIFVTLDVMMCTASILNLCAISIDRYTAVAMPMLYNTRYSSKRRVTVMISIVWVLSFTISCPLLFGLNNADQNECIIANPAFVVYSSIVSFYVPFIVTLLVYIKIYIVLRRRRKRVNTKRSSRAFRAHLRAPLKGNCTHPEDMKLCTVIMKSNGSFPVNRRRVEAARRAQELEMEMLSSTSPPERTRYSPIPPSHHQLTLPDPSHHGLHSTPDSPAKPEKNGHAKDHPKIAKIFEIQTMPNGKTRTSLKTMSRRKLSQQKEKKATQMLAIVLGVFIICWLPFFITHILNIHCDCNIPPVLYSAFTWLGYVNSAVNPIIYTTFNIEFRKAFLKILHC
D2 receptor, sequence (P14416 whole entry): as above

Ki (D2 receptor) [µM]	Brain AUC ([1]; brain) [µM·h]	Brain Cmax ([1]; brain) [µM]	half-life [1, 6] [h]	AUC ([1]; plasma) [µM·h]	Cmax ([1]; plasma) [µM]	half-life [1, 7] [h]	EC50 (human D2R/β-arrestin [2]) [µM]	EC50 (human D2R/β-arrestin [3]) [µM]	IC50 (human D2R/β-arrestin [4]) [µM]	fraction unbound (Brain protein binding)	IC50 (human D2R/β-arrestin [5]) [µM]	SMILES
1 to 10	222.3	37.9	7	69.6	19.8	13.4	0.1 to 1	10 to 30	> 30	0.002	> 30	CC1(Oc2ccc(Cl)cc2)CCN(CCOc2ccc(C(F)(F)F)cc2)CC1 [Compound 125, 4-(4-Chlorophenoxy)-4-methyl-1-(2-(4-(trifluoromethyl)phenoxy)ethyl) piperidine]
0.1 to 1	70.4	7.03	6	14	2.47	6.2	0.1 to 1	> 30	0.1 to 1	< 0.001	0.1 to 1	CC1(Oc2ccc(Cl)cc2)CCN(CCOc2ccc(F)cc2C(F)(F)F)CC1 [Compound 157, 4-(4-chlorophenoxy)-1-(2-(4-fluoro-2-(trifluoromethyl)phenoxy)ethyl)-4-methylpiperidine]
